Experimental data from patent US9499519B2, “Fused pyrimidine compounds and use thereof” (Medivation Technologies, Inc., priority 2012, dated 2016).

Test system: Akt phosphorylation induced by IGF-1R
Experiment: Western blot analysis of Akt phosphorylation induced by IGF-1 in HT-29 cells
Format: cell-based, Human
Conditions: for Levels of phosphorylated AKT in treated cells (pAKT/actin): HT-29 cells, IGF-1; for p-AKT relative to levels with 0.1 nM compound: Table B2 lower part; for Normalized phosphorylated AKT (relative to actin) levels relative to 0.1 nM compound treatment: Table B2 upper part
Method: Inhibition of Akt phosphorylation induced by IGF-1R was studied by western blot analysis. Human colon carcinoma HT-29 cells were seeded at a density of 8×10^4 cells/well in a 24-well plate and grown in DME/F12 media containing 10% FBS for 24 h. The cells were then depleted of serum by incubation in DME/F12 media lacking FBS for 24 h. […] […] Lysed cells were centrifuged at 13,000 rpm for 15 min and the protein concentration soluble fraction (supernatant) of each sample was determined using a BCA protein assay (Pierce).

| Structure (SMILES) | Levels of phosphorylated AKT in treated cells (pAKT/actin) (0.1 nM compound) | p-AKT relative to levels with 0.1 nM compound (0.1 nM) | Normalized phosphorylated AKT (relative to actin) levels relative to 0.1 nM compound treatment (0.1 nM) | Levels of phosphorylated AKT in treated cells (pAKT/actin) (1 nM compound) | p-AKT relative to levels with 0.1 nM compound (1 nM) | Normalized phosphorylated AKT (relative to actin) levels relative to 0.1 nM compound treatment (1 nM) | Levels of phosphorylated AKT in treated cells (pAKT/actin) (10 nM compound) | p-AKT relative to levels with 0.1 nM compound (10 nM) | Normalized phosphorylated AKT (relative to actin) levels relative to 0.1 nM compound treatment (10 nM) | Levels of phosphorylated AKT in treated cells (pAKT/actin) (100 nM compound) | p-AKT relative to levels with 0.1 nM compound (100 nM) | Normalized phosphorylated AKT (relative to actin) levels relative to 0.1 nM compound treatment (100 nM) |
| --- | --- | --- | --- | --- | --- | --- | --- | --- | --- | --- | --- | --- |
| O=C(Nc1ccc(F)nc1)C1CCCN1c1nc2c(c(Nc3cc(C4CC4)[nH]n3)n1)CCC2 (racemic) [Compound 2, 1-(4-(5-cyclopropyl-1H-pyrazol-3-ylamino)-6,7-dihydro-5H-cyclopenta[d]pyrimidin-2-yl)-N-(6-fluoropyridin-3-yl)pyrrolidine-2-carboxamide] | 1.04 | 1.0 | 1.0 | 0.91 | 0.9 | 0.9 | 0.07 | 0.1 | 0.1 | 0.00 | 0.0 | 0.0 |
| O=C(Nc1ccc(F)nc1)C1CCCN1c1nc2c(c(Nc3cc(C4CCCC4)[nH]n3)n1)CCC2 (racemic) [Compound 4, 1-(4-(3-cyclopentyl-1H-pyrazol-5-ylamino)-6,7-dihydro-5H-cyclopenta[d]pyrimidin-2-yl)-N-(6-fluoropyridin-3-yl)pyrrolidine-2-carboxamide] | 1.92 | 1.0 | 1.0 | 1.59 | 0.8 | 0.8 | 1.01 | 0.5 | 0.5 | 0.06 | 0.0 | 0.0 |
| O=C(Nc1cnccn1)C1CCCN1c1nc2c(c(Nc3cc(C4CC4)[nH]n3)n1)CCC2 (racemic) [Compound 6, 1-(4-(3-cyclopropyl-1H-pyrazol-5-ylamino)-6,7-dihydro-5H-cyclopenta[d]pyrimidin-2-yl)-N-(pyrazin-2-yl)pyrrolidine-2-carboxamide] | 1.54 | 1.0 | 1.0 | 0.22 | 0.1 | 0.1 | 0.01 | 0.0 | 0.0 | 0.01 | 0.0 | 0.0 |
| O=C(Nc1cncnc1)C1CCCN1c1nc2c(c(Nc3cc(C4CC4)[nH]n3)n1)CCC2 (racemic) [Compound 7, 1-(4-(3-cyclopropyl-1H-pyrazol-5-ylamino)-6,7-dihydro-5H-cyclopenta[d]pyrimidin-2-yl)-N-(pyrimidin-5-yl)pyrrolidine-2-carboxamide] | 1.45 | 1.0 | 1.0 | 2.08 | 1.4 | 1.4 | 1.09 | 0.7 | 0.7 | 1.20 | 0.8 | 0.8 |
| O=C(Nc1ccc(F)nc1)C1CCCCN1c1nc2c(c(Nc3cc(C4CC4)[nH]n3)n1)CCC2 (racemic) [Compound 9, 1-(4-(3-cyclopropyl-1H-pyrazol-5-ylamino)-6,7-dihydro-5H-cyclopenta[d]pyrimidin-2-yl)-N-(6-fluoropyridin-3-yl)piperidine-2-carboxamide] | 0.67 | 1.0 | 1.0 | 0.71 | 1.1 | 1.1 | 0.07 | 0.1 | 0.1 | 0.00 | 0.0 | 0.0 |
| O=C(Nc1cccnc1)C1CCCN1c1nc2c(c(Nc3cc(C4CC4)[nH]n3)n1)CCC2 (single isomer, unassigned) [Compound 3a, 1-(4-(5-cyclopropyl-1H-pyrazol-3-ylamino)-6,7-dihydro-5H-cyclopenta[d]pyrimidin-2-yl)-N-(pyridin-3-yl)pyrrolidine-2-carboxamide] | 2.64 | 1.0 | 1.0 | 1.68 | 0.6 | 0.6 | 1.86 | 0.7 | 0.7 | 2.19 | 0.8 | 0.8 |
| O=C(Nc1cccnc1)C1CCCN1c1nc2c(c(Nc3cc(C4CC4)[nH]n3)n1)CCC2 (single isomer, unassigned) [Compound 3b, 1-(4-(5-cyclopropyl-1H-pyrazol-3-ylamino)-6,7-dihydro-5H-cyclopenta[d]pyrimidin-2-yl)-N-(pyridin-3-yl)pyrrolidine-2-carboxamide] | 2.25 | 1.0 | 1.0 | 1.70 | 0.8 | 0.8 | 0.57 | 0.3 | 0.3 | 0.02 | 0.0 | 0.0 |
| O=C(Nc1ccc(F)nc1)C1CCCCN1c1nc2c(c(Nc3cc(C4CC4)[nH]n3)n1)CCC2 (single isomer, unassigned) [Compound 9a, 1-(4-(3-cyclopropyl-1H-pyrazol-5-ylamino)-6,7-dihydro-5H-cyclopenta[d]pyrimidin-2-yl)-N-(6-fluoropyridin-3-yl)piperidine-2-carboxamide] | 1.24 | 1.0 | 1.0 | 1.26 | 1.0 | 1.0 | 0.53 | 0.4 | 0.4 | 0.02 | 0.0 | 0.0 |
| O=C(Nc1ccc(F)nc1)C1CCCCN1c1nc2c(c(Nc3cc(C4CC4)[nH]n3)n1)CCC2 (single isomer, unassigned) [Compound 9b, 1-(4-(3-cyclopropyl-1H-pyrazol-5-ylamino)-6,7-dihydro-5H-cyclopenta[d]pyrimidin-2-yl)-N-(6-fluoropyridin-3-yl)piperidine-2-carboxamide] | 1.46 | 1.0 | 1.0 | 1.55 | 1.1 | 1.1 | 1.18 | 0.8 | 0.8 | 0.78 | 0.5 | 0.5 |
